From ChEMBL document CHEMBL4765292, “Flexible diaminodihydrotriazine inhibitors of Plasmodium falciparum dihydrofolate reductase: Binding strengths, modes of binding and their antimalarial activities” (Eur J Med Chem, 2020) come the findings set out here.

A short description of series [1]: Therapeutic index, ratio of IC50 for African green monkey Vero cells to IC50 for Plasmodium falciparum K1CB1 harboring DHFR […] mutant. The format is toxicity. The note with it: read-out: Ratio IC50.
Series [2] concerns DHFR (human against Plasmodium falciparum DHFR). Description: Selectivity index, ratio of Ki for human DHFR expressed in Escherichia coli BL21 to Ki for Plasmodium falciparum DHFR expressed in Escherichia coli BL21. In kind it is toxicity. The note with it: read-out: Ratio Ki.
The test system of series [3] is DHFR (human against Plasmodium falciparum DHFR double mutant). The series can be described thus: Selectivity index, ratio of Ki for human DHFR expressed in Escherichia coli BL21 to Ki for Plasmodium falciparum DHFR double mutant expressed in Escherichia coli BL21. The format is toxicity. The note with it: read-out: Ratio Ki.
The nature of series [4]: Therapeutic index, ratio of IC50 for African green monkey Vero cells to IC50 for Plasmodium falciparum V1/S harboring DHFR N51I/C59R/S108N/I164L mutant. In kind it is toxicity. The note with it: read-out: Ratio IC50.
The nature of series [5]: Inhibition of Plasmodium falciparum DHFR N51I/C59R/S108N/I164L mutant expressed in Escherichia coli BL21 using DHF as substrate by spectrophotometric analysis.
Series [6] in a line: Inhibition of Plasmodium falciparum DHFR […] mutant expressed in Escherichia coli BL21 using DHF as substrate by spectrophotometric analysis.
The nature of series [7]: Inhibition of Plasmodium falciparum DHFR N51I/C59R/S108N mutant expressed in Escherichia coli BL21 using DHF as substrate by spectrophotometric analysis.
Series [8] concerns Plasmodium falciparum. The series can be described thus: Antimalarial activity against Plasmodium falciparum W2 harboring DHFR N51I/C59R/S108N mutant infected in human erythrocytes assessed as reduction in [3H]-hypoxanthine incorporation pretreated for 20 hrs followed by [3H]-hypoxanthine addition measured after 20 hrs by radioactivity method. The format is functional, organism-based. The note with it: W2, Erythrocyte.

The nature of series [9]: Inhibition of Plasmodium falciparum DHFR C59R/S108N/I164L mutant expressed in Escherichia coli BL21 using DHF as substrate by spectrophotometric analysis.
Series [10] relates to Plasmodium falciparum. The series can be described thus: Antimalarial activity against Plasmodium falciparum V1/S harboring DHFR N51I/C59R/S108N/I164L mutant infected in human erythrocytes assessed as reduction in [3H]-hypoxanthine incorporation pretreated for 20 hrs followed by [3H]-hypoxanthine addition measured after 20 hrs by radioactivity method. The format is functional, organism-based. The note with it: Erythrocyte.

The test system of series [11] is DHFR (human against Plasmodium falciparum DHFR N51I/C59R/S108N/I164L mutant). The series can be described thus: Selectivity index, ratio of Ki for human DHFR expressed in Escherichia coli BL21 to Ki for Plasmodium falciparum DHFR N51I/C59R/S108N/I164L mutant expressed in Escherichia coli BL21. In kind it is toxicity. The note with it: read-out: Ratio Ki.
Series [12] deals with Vero. Description: Cytotoxicity against African green monkey Vero cells assessed as reduction in cell viability incubated for 72 hrs by SRB assay. The format is cell-based. The note with it: Chlorocebus sabaeus.
A short description of series [13]: Inhibition of Plasmodium falciparum DHFR using DHF as substrate by spectrophotometric analysis.
Series [14] deals with Plasmodium falciparum. Description: Antimalarial activity against Plasmodium falciparum TM4/8.2 infected in human erythrocytes assessed as reduction in [3H]-hypoxanthine incorporation pretreated for 20 hrs followed by [3H]-hypoxanthine addition measured after 20 hrs by radioactivity method. The format is functional, organism-based.
Series [15] concerns Plasmodium falciparum. Description: Antimalarial activity against Plasmodium falciparum T9/94 RC17 harboring DHFR A16V/S108T mutant infected in human erythrocytes assessed as reduction in [3H]-hypoxanthine incorporation pretreated for 20 hrs followed by [3H]-hypoxanthine addition measured after 20 hrs by radioactivity method. In kind it is functional, organism-based. The note with it: T9/94 RC17, Erythrocyte.

Series [16] is described as follows: Therapeutic index, ratio of IC50 for African green monkey Vero cells to IC50 for Plasmodium falciparum TM4/8.2. The note with it: against Plasmodium falciparum TM4/8.2, read-out: Ratio IC50. In kind it is toxicity.
Series [17] has as its system Plasmodium falciparum. Description: Antimalarial activity against Plasmodium falciparum CsI-2 harboring DHFR C59R/S108N/I164L mutant infected in human erythrocytes assessed as reduction in [3H]-hypoxanthine incorporation pretreated for 20 hrs followed by [3H]-hypoxanthine addition measured after 20 hrs by radioactivity method. In kind it is functional, organism-based. The note with it: CsI-2, Erythrocyte.

The test system of series [18] is Plasmodium falciparum. Description: Antimalarial activity against Plasmodium falciparum K1CB1 harboring DHFR […] mutant infected in human erythrocytes assessed as reduction in [3H]-hypoxanthine incorporation pretreated for 20 hrs followed by [3H]-hypoxanthine addition measured after 20 hrs by radioactivity method. Conditions: K1CB1, Erythrocyte. In kind it is functional, organism-based.

For the compound `NC1=NC(c2ccccc2)N(OCCCOc2cc(Cl)c(Cl)cc2Cl)C(N)=N1` (stereo not drawn), the selectivity ratio in [1] turned out to be 570; in series [2] it was 242; in [3], 76; in series [4], 52; in series [11] it was 207; in series [16] it was 4920. Further, the Ki in series [5] amounted to 0.7 nM; in [6] it was 1.9 nM; in series [7], 1.6 nM; in [9], 0.3 nM; in series [13], 0.6 nM. Moreover, the IC50 in series [8] amounted to 60 nM; in series [10] it was 480 nM; in series [12], 25100 nM; in series [14], 5.1 nM; in series [15] it was 3.2 nM; in series [17], 340 nM. For the same compound, the concentration for half-maximal inhibition (IC50) in [18] was 44 nM.

As a reminder, the Ki is a measure of affinity in units of concentration, obtained from inhibition or displacement. What is called IC50 is the midpoint of a concentration-inhibition curve.
